Here are results for 16 compounds from patent US9481676B2, “Azepino[4,5-B]indoles and methods of use” (Medivation Technologies, Inc., priority 2008, dated 2016).

The target in experiment [1] is T1, human recombinant adrenergic α2A receptor (Homo sapiens, UniProt P08913).
T1 construct: expressed in transfected cells; host or cells: insect Sf9 cells
T1 sequence (P08913 1-465): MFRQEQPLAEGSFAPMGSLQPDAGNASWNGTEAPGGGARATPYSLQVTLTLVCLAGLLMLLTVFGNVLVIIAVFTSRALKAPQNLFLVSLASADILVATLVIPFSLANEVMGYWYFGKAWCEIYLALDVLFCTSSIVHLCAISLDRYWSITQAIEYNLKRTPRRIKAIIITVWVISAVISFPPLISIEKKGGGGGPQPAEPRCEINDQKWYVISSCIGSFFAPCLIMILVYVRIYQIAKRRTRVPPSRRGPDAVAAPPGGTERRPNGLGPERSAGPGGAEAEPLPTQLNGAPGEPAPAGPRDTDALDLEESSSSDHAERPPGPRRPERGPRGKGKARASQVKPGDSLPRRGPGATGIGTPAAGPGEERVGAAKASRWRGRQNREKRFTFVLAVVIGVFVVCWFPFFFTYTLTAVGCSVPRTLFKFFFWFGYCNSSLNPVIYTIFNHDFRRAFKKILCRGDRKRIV
Put plainly: Adrenergic alpha2A radioligand binding ([3H]MK-912). As to conditions: compound at 1 μM; read-out: Adrenergic (1 μM) α2A, percent inhibition of specific binding. The procedure: To evaluate in radioligand binding assays the activity of compounds of the invention, human recombinant adrenergic α2A receptor expressed in insect Sf9 cells (Uhlen S et al. J Pharmacol Exp Ther. 271:1558, 1994) in a modified Tris-HCl buffer (50 mM Tris-HCl, pH 7.4, 12.5 mM MgCl2, 2 mM EDTA) was used. Compounds of invention were incubated with 1 nM [^3H]MK-912 for 60 min. at 25° C. MK912 is (2S-trans)-1,3,4,5′,6,6′,7,12b-octahydro-1′,3′-dimethyl-spiro[2 h-benzofuro [2,3-a]quinolizine-2,4′ (1′H)-pyrimidin]-2′ (3′H)-one hydrochloride Non-specific binding was estimated in the presence of 10 μM WB-4101 (2-(2,6-Dimethoxyphenoxyethyl)aminomethyl-1,4-benzodioxane hydrochloride). Receptor proteins were filtered and washed, the filters were then counted to determine [^3H]MK-912 specifically bound. Compounds were screened at 1 μM or lower, using 1% DMSO as vehicle. Biochemical assay results are presented as the percent inhibition of specific binding in Table 5.

Experiment [2] addresses T2, human recombinant dopamine D2L receptor (Homo sapiens, UniProt P14416).
T2 construct: expressed in transfected cells; host or cells: CHO cells
Put plainly: Dopamine D2L radioligand binding ([3H]Spiperone). As to conditions: compound at 1 μM; read-out: Dopamine (1 μM) D2L, percent inhibition of specific binding. An outline of the steps:
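Binding measured by filtration and counting, reported as % inhibition of specific [3H]spiperone binding (0.16 nM tracer; 10 μM haloperidol for nonspecific). Compounds tested at ≤1 μM in 1% DMSO for 120 min at 25° C against CHO-expressed human D2L in pH 7.4 Tris-HCl buffer.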

Experiment [3] concerns the target T3, human recombinant histamine H2 receptor (Homo sapiens, UniProt P25021).
T3 construct: expressed in transfected cells; host or cells: CHO-K1 cells
Put plainly: Histamine H2 radioligand binding ([125I]Aminopotentidine). As to conditions: compound at 1 μM; read-out: Histamine Binding (1 μM) H2, percent inhibition of specific binding. An outline of the steps: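 Membranes from CHO-K1 cells expressing recombinant human H2 receptor, in 50 mM phosphate buffer pH 7.4, incubated with 0.1 nM [125I]aminopotentidine for 120 min at 25 °C; nonspecific binding defined with 3 μM tiotidine.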

For experiment [4], the target named is T4, human recombinant serotonin (5-Hydroxytryptamine) 5-HT6 receptor (Homo sapiens, UniProt P50406).
T4 construct: expressed in transfected cells; host or cells: human HeLa cells
T4 sequence (P50406 whole entry): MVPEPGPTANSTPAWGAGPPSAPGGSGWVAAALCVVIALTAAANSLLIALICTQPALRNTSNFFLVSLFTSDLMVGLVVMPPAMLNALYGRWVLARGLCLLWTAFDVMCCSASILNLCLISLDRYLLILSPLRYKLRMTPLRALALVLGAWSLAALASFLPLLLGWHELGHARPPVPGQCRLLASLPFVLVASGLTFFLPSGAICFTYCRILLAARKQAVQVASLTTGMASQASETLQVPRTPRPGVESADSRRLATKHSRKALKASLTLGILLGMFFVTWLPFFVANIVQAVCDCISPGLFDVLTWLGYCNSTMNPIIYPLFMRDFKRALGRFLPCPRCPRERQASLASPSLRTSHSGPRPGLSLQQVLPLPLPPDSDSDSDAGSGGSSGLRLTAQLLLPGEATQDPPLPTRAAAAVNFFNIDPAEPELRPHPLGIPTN
Briefly: Serotonin 5-HT6 radioligand binding ([3H]LSD). As to conditions: compound at 1 μM; read-out: Serotonin (1 μM) 5-HT6, percent inhibition of specific binding. An outline of the steps:
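Human recombinant 5-HT6 receptor from HeLa cells incubated with 1.5 nM [3H]LSD for 120 min at 37° C in 50 mM Tris-HCl pH 7.4, 150 mM NaCl, 2 mM ascorbic acid, 0.001% BSA. Nonspecific binding defined with 5 μM serotonin; bound ligand counted after filtration.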

Experiment [5] concerns the target T5, human recombinant histamine H1 receptor (Homo sapiens, UniProt P35367).
T5 construct: expressed in transfected cells; host or cells: CHO cells
Put plainly: Histamine H1 radioligand binding ([3H]Pyrilamine). Conditions: compound at 1 μM; read-out: Histamine Binding (1 μM) H1, percent inhibition of specific binding. An outline of the steps:
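Membranes from CHO cells expressing the receptor were incubated with compound and 1.2 nM [3H]pyrilamine for 180 min at 25 °C in 50 mM Tris-HCl pH 7.4 with MgCl2, NaCl and sucrose; 1 μM pyrilamine defined non-specific binding. Filter-bound radioactivity was counted.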

T5 sequence (P35367 whole entry): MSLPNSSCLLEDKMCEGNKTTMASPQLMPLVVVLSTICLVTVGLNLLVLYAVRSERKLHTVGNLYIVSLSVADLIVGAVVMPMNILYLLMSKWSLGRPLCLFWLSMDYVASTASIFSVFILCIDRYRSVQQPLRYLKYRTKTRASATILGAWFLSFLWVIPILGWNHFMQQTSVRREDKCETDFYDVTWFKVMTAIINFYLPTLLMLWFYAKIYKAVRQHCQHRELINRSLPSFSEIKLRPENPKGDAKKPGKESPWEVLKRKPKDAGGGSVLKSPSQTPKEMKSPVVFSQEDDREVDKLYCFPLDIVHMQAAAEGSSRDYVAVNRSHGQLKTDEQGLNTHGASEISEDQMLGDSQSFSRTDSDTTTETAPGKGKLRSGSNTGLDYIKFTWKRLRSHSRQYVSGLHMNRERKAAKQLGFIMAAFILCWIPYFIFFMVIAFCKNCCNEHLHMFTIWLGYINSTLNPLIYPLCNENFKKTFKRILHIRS
T2 sequence (P14416 whole entry): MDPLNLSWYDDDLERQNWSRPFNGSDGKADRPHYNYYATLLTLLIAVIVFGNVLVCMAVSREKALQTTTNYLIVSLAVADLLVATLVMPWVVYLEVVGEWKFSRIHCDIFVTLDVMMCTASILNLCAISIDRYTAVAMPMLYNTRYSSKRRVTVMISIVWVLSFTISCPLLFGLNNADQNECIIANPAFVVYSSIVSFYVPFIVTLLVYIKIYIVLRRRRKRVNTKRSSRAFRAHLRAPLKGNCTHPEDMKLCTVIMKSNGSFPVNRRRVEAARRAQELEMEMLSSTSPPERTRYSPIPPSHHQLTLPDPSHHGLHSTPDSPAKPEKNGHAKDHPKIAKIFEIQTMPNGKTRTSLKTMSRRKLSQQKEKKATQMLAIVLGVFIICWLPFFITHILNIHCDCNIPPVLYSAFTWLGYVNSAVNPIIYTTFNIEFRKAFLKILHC
T3 sequence (P25021 whole entry): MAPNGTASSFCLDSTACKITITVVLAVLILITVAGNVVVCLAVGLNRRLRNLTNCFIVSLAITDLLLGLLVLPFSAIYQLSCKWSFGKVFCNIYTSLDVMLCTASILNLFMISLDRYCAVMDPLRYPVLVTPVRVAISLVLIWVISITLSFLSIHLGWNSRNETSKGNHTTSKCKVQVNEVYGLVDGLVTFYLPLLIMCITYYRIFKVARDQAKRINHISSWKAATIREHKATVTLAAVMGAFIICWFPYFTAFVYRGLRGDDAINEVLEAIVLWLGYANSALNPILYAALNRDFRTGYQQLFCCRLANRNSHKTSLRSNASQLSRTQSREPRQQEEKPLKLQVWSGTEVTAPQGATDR

One may read the inhibition as the drop in the measured response relative to a control, in per cent. Regarding `Cc1ccc2c(c1)c1c(n2CC(=O)N2CCCC2)CCN(C)CC1` [Compound No. 45, 2-(2,3,4,5-tetrahydro-3,9-dimethylazepino[4,5-b]indol-6(1H)-yl)-1-(pyrrolidin-1-yl)ethanone], the inhibition at 1 µM was -9% in experiment [1]; -6% in experiment [2]; 7% in experiment [3]; 2% in experiment [4]; 13% in experiment [5].

Consider `CN1CCc2c(n(CC(=O)OCc3ccccc3)c3ccc(Cl)cc23)CC1` [Compound No. 75, Benzyl-2-(9-chloro-2,3,4,5-tetrahydro-3-methylazepino[4,5-b]indol-6(1H)-yl)acetate], for which the inhibition at 1 µM in experiment [1] was 7%; in experiment [2], 2%; in experiment [3] it was -4%; in experiment [4], -2%; in experiment [5], 20%.

For the compound `CN1CCc2c(n(CCc3ccccc3)c3ccc(Cl)cc23)CC1` [Compound No. 56, 9-chloro-1,2,3,4,5,6-hexahydro-3-methyl-6-phenethylazepino[4,5-b]indole], the inhibition at 1 µM in experiment [1] is 95%; in experiment [2], 62%; in experiment [3], 74%; in experiment [4], 104%; in experiment [5] it was 105%.

`Cc1ccc2c(c1)c1c(n2CC(=O)NC2CCCCC2)CCN(C)CC1` [Compound No. 22, N-cyclohexyl-2-(2,3,4,5-tetrahydro-3,9-dimethylazepino[4,5-b]indol-6(1H)-yl)acetamide]: the inhibition at 1 µM was -14% in experiment [1]; 0% in experiment [2]; 5% in experiment [3]; -12% in experiment [4]; 12% in experiment [5].

With `C/C(=C\n1c2c(c3cc(C)ccc31)CCN(C)CC2)c1ccc(Cl)cc1` [Compound No. 33, 6-((E)-2-(4-chlorophenyl)prop-1-enyl)-1,2,3,4,5,6-hexahydro-3,9-dimethylazepino[4,5-b]indole], the inhibition at 1 µM is 97% in experiment [1]; 35% in experiment [2]; 101% in experiment [3]; 98% in experiment [4]; 87% in experiment [5].

For `Cc1ccc2c(c1)c1c(n2/C=C/c2ccc(Cl)cc2)CCN(C)CC1` [Compound No. 235, (E)-6-(4-chlorostyryl)-3,9-dimethyl-1,2,3,4,5,6-hexahydroazepino[4,5-b]indole], the inhibition at 1 µM in experiment [1] worked out at 95%; in experiment [2], 42%; in experiment [3] it was 94%; in experiment [4], 97%; in experiment [5], 97%.

Regarding `Cc1ccc2c(c1)c1c(n2CC(O)c2cccnc2)CCN(C)CC1` (centres unmarked) [Compound No. 19, 2-(2,3,4,5-tetrahydro-3,9-dimethylazepino[4,5-b]indol-6(1H)-yl)-1-(pyridin-3-yl)ethanol], the inhibition at 1 µM in experiment [1] amounted to 69%; in experiment [2], 12%; in experiment [3], 42%; in experiment [4], 42%; in experiment [5], 99%.

With `COc1ccc(/C=C/n2c3c(c4cc(C)ccc42)CCN(C)CC3)c(F)c1` [Compound No. 230, (E)-6-(2-fluoro-4-methoxystyryl)-3,9-dimethyl-1,2,3,4,5,6-hexahydroazepino[4,5-b]indole], the inhibition at 1 µM is 102% in experiment [1]; 48% in experiment [2]; 89% in experiment [3]; 100% in experiment [4]; 95% in experiment [5].

Regarding `CN1CCc2c(n(CC(O)c3ccncc3)c3ccc(Cl)cc23)CC1` (centres unmarked) [Compound No. 42, 2-(9-chloro-2,3,4,5-tetrahydro-3-methylazepino[4,5-b]indol-6(1H)-yl)-1-(pyridin-4-yl)ethanol], the inhibition at 1 µM is 87% in experiment [1]; 8% in experiment [2]; 45% in experiment [3]; 73% in experiment [4]; 103% in experiment [5].

As for `CN1CCc2c(n(CCc3ccccc3Cl)c3ccc(Cl)cc23)CC1` [Compound No. 29, 6-(2-chlorophenethyl)-9-chloro-1,2,3,4,5,6-hexahydro-3-methylazepino[4,5-b]indole], the inhibition at 1 µM in experiment [1] came to 101%; in experiment [2], 67%; in experiment [3] it was 105%; in experiment [4], 103%; in experiment [5], 98%.

For `COc1ccc(C(O)Cn2c3c(c4cc(Cl)ccc42)CCN(C)CC3)cc1F` (centres unmarked) [Compound No. 67, 2-(9-chloro-2,3,4,5-tetrahydro-3-methylazepino[4,5-b]indol-6(1H)-yl)-1-(3-fluoro-4-methoxyphenyl) ethanol], the inhibition at 1 µM in experiment [1] worked out at 102%; in experiment [2], 50%; in experiment [3], 72%; in experiment [4], 86%; in experiment [5] it was 100%.

As to `CN1CCc2c(n(C#Cc3ccc(F)cc3)c3ccc(Cl)cc23)CC1` [Compound No. 281, 9-chloro-6-((4-fluorophenyl)ethynyl)-3-methyl-1,2,3,4,5,6-hexahydroazepino[4,5-b]indole], the inhibition at 1 µM was determined as 92% in experiment [1]; 40% in experiment [2]; 76% in experiment [3]; 97% in experiment [4]; 56% in experiment [5].

Regarding `COc1ccc(C(O)Cn2c3c(c4cc(C)ccc42)CCN(C)CC3)cc1F` (centres unmarked) [Compound No. 68, 1-(3-fluoro-4-methoxyphenyl)-2-(2,3,4,5-tetrahydro-3,9-dimethylazepino[4,5-b]indol-6(1H)-yl)ethanol], the inhibition at 1 µM in experiment [1] came to 99%; in experiment [2], 40%; in experiment [3] it was 69%; in experiment [4], 87%; in experiment [5], 102%.

As to `Cc1ccc(CCn2c3c(c4cc(Cl)ccc42)CCN(C)CC3)cc1` [Compound No. 46, 9-chloro-3-methyl-6-(4-methylphenethyl)-1,2,3,4,5,6-hexahydroazepino[4,5-b]indole], the inhibition at 1 µM amounted to 100% in experiment [1]; 79% in experiment [2]; 89% in experiment [3]; 98% in experiment [4]; 108% in experiment [5].

Turning to `C/C(=C\n1c2c(c3cc(C)ccc31)CCN(C)CC2)c1ccc(Cl)cc1Cl` [Compound No. 238, (E)-6-(2-(2,4-dichlorophenyl)prop-1-enyl)-3,9-dimethyl-1,2,3,4,5,6-hexahydroazepino[4,5-b]indole], the inhibition at 1 µM in experiment [1] was determined as 98%; in experiment [2], 7%; in experiment [3], 98%; in experiment [4], 86%; in experiment [5], 98%.

Regarding `CN1CCc2c(n(/C=C/c3ccc(F)cc3)c3ccc(Cl)cc23)CC1` [Compound No. 234, (E)-9-chloro-6-(4-fluorostyryl)-3-methyl-1,2,3,4,5,6-hexahydroazepino[4,5-b]indole], the inhibition at 1 µM in experiment [1] is 98%; in experiment [2], 71%; in experiment [3], 92%; in experiment [4] it was 103%; in experiment [5], 99%.
